For this test, the system named is A/Vietnam/1194/04(H5N1)-NIBRG-14 highly pathogenic avian influenza virus. In kind it is cell-based.

Each structure is given as a SMILES string. A value given as a limit tells only on which side of the number the result lay.

Turning to `C=C1C(=O)OC2CC(C)(O)C3CCC(C)(O)C3CC12` (stereo not drawn) [Compound IV, 4β,10α-dihydroxy-guaia-8α,12-olide], the Activity result is reported as “∘ (key: ∘: antiviral activity defined as a decrease of 4 log units)”, the log100TCID50/ was found to be 5 and the “viral titer lower than that of the control group” value came out at 4 log.
On to `C=C1C(=O)O[C@@H]2[C@@H]1[C@H](OC(=O)/C(C)=C\C)[C@@]1(O)O[C@H](C[C@@H]1C)C[C@@](C)(O)[C@H]2OC(=O)CC(C)C` [Compound III, 2α,5-epoxy-5,10-dihydroxy-6α-angeloyloxy-9β-(3-methyl-butanoyloxy)-gemacran-8α,12-olide], for which the CPE inhibitory concentration is >10 µg/mL and the log100TCID50/ was 0.
As to `C=C1C(=O)O[C@@H]2[C@@H]1[C@H](OC(=O)/C(C)=C\C)[C@@]1(O)O[C@H](C[C@@H]1C)C[C@@](C)(O)[C@H]2OC(=O)C(C)C` [Compound I, 2α,5-epoxy-5,10-dihydroxy-6α-angeloyloxy-9β-isobutyloxy-germacran-8α,12-olide], the CPE inhibitory concentration is >10 µg/mL and the log100TCID50/ is listed as 0.

These data come from US20130344183A1, “NOVEL COMPOUND ISOLATED FROM […] ROXB AND USE THEREOF AS ANTIVIRAL AGENT” (priority 2011, published 2013).
